Assay results reported in paper PMC7949102 (The Journal of Biological Chemistry, 2021).

Key:
DdGlud2 = molecular target: T1, DdGlud2 (Dictyostelium discoideum, UniProt Q54VI3); experiment: NADH formation at […] nm; format: biochemical; conditions: activator; 1 mM GTP, 10 mM Glu, 1 mM NAD+; pH 8.0, 23 °C
T1 construct: gene glud2; full-length, His6-SUMO tag cleaved by ULP, E. coli BL21 Rosetta; elutes at 212 kDa
T1 sequence (Q54VI3 1-1042): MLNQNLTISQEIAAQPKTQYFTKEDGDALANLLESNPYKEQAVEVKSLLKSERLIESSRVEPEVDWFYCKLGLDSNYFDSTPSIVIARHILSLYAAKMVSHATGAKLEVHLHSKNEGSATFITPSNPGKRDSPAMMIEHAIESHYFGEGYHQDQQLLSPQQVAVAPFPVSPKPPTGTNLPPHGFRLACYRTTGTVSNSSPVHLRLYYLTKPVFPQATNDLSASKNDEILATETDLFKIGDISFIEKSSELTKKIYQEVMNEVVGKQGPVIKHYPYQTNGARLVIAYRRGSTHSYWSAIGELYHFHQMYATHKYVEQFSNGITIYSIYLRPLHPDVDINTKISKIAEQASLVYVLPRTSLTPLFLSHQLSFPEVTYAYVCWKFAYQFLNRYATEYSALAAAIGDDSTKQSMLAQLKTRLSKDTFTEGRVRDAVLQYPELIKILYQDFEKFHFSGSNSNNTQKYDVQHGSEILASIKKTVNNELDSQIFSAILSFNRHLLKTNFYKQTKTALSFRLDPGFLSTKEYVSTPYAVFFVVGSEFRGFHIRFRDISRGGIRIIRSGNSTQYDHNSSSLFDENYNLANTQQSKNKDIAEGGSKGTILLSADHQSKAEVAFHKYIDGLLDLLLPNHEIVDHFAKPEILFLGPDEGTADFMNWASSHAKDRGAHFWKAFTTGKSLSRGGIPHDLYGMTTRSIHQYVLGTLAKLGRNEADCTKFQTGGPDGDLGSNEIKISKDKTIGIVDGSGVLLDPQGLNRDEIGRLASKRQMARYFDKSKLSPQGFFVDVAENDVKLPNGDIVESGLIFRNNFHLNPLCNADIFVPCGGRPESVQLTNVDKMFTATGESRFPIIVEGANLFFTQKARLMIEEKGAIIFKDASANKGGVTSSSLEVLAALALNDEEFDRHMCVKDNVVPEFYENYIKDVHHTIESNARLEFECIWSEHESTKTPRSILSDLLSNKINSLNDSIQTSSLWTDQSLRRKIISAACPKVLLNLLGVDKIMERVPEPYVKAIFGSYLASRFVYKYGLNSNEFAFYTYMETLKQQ

Ltuc1293 = molecular target: T2, Ltuc1293 (Legionella tucsonensis, UniProt A0A0W0ZWS2); format: biochemical
T2 construct: gene Ltuc_1293

Llo2453 = molecular target: T3, Llo2453 (Legionella longbeachae, UniProt D3HKA9); format: biochemical
T3 construct: gene LLO_2453

Lart1 = Lart1 (Legionella pneumophila, UniProt Q5ZZ30); conditions: 250 μM etheno-NAD+, 0-8 mM nicotinamide, 0.5 mg/ml DdGlud2; pH 7.5, 100 mM NaCl, room temperature
purified protein = substrate: N[C@@H](CCC(=O)O)C(=O)O; experiment: purified protein; conditions: 5 mM NAD+, 100 mM Tris-HCl pH 8.0, 0.1 mg/ml BSA, 1 mM DTT, 23 °C, oxidative deamination
SEC = molecular target: the molecule itself; experiment: SEC

T2 sequence (A0A0W0ZWS2 1-330): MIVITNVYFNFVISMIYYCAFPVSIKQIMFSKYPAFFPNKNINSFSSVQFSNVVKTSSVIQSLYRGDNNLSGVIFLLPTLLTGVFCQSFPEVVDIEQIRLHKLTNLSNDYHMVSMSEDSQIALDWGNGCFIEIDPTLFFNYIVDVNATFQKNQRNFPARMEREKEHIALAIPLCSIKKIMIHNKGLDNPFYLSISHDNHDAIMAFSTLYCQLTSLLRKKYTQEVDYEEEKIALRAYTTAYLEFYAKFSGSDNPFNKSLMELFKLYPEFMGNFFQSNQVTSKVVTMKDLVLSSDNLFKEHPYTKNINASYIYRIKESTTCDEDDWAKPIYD
Lart1, sequence (Q5ZZ30 whole entry, looked up): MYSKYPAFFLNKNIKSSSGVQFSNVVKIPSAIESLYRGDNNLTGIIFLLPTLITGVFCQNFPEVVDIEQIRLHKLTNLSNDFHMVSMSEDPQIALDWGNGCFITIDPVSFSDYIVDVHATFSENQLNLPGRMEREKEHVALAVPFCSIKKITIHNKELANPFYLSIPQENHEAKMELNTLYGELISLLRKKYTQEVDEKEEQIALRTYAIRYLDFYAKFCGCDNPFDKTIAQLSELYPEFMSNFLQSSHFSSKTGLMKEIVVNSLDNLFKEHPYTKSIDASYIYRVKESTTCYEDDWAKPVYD
T3 sequence (D3HKA9 1-303): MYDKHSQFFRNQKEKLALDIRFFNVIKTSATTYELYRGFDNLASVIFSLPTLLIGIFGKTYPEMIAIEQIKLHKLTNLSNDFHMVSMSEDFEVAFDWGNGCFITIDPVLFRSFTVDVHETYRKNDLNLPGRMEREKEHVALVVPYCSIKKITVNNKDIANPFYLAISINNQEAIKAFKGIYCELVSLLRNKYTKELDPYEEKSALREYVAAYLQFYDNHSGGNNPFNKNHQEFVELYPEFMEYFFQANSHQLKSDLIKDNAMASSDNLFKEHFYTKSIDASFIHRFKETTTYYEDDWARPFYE

Nc1nc2c(ncn2[C@@H]2O[C@H](COP(=O)(O)OP(=O)(O)OP(=O)(O)O)[C@@H](O)[C@H]2O)c(=O)[nH]1 [GTP]
fold stimulation at 1 mM (DdGlud2): 2.5 fold

NC(=O)c1ccc[n+]([C@@H]2O[C@H](COP(=O)(O)OP(=O)(O)OC[C@H]3O[C@@H](n4cnc5c4ncn4ccnc54)[C@H](O)[C@@H]3O)[C@@H](O)[C@H]2O)c1 [etheno-NAD+]
ADP-ribosylation of DdGlud2, anti-ethenoadenosine immunoblot (Ltuc1293): ADP-ribosylated DdGlud2 in assays using both etheno-NAD+ and biotin-NAD+ as substrates | ADP-ribosylation of DdGlud2, anti-ethenoadenosine immunoblot (Llo2453): ADP-ribosylated DdGlud2 in assays using both etheno-NAD+ and biotin-NAD+ as substrates

NC(=O)c1cccnc1 [nicotinamide]
inhibition (Lart1): Lart1 ADP ribosylation was inhibited by free nicotinamide in ≥ twofold excess of NAD+

B1: DdGlud2 (Dictyostelium discoideum) (protein)
chain: T1 sequence (Q54VI3 1-1042)
Km (purified protein): 18.53 (95% CI 10.72, 32.15) mM

B2: Dictyostelium discoideum Glud2 (NAD+-dependent glutamate dehydrogenase of the 115-kDa class) (enzyme, UniProt Q54VI3 1-1042, looked up)
chain: T1 sequence (Q54VI3 1-1042)
notes: also called DdGlud2; Dictyostelium Glud2; not shown: 6X-His, N-terminal, cleaved; SUMO (yeast SMT3), N-terminal, cleaved
stoichiometry N (SEC): 2
